Legend:
[1] = target: T1, Leucine-rich repeat serine/threonine-protein kinase 2 (Homo sapiens, UniProt Q5S007); experiment: Inhibition of recombinant human LRRK2 WT using fluorescein-labeled LRRKtide as substrate in presence of ATP preincubated for 50 mins followed by anti-phospho-LRRKtide antibody addition and measured after 30 mins by TR-FRET based Lanthascreen kinase activity assay
[2] = target: T2, Leucine-rich repeat serine/threonine-protein kinase 2 (Homo sapiens, UniProt Q5S007, G2019S); experiment: Inhibition of recombinant human GST tagged truncated LRRK2 G2019S mutant using fluorescein-labeled LRRKtide as substrate in presence of ATP preincubated for 50 mins followed by anti-phospho-LRRKtide antibody addition and measured after 30 mins by TR-FRET based Lanthascreen kinase activity assay
[3] = target: T2, Leucine-rich repeat serine/threonine-protein kinase 2; experiment: Inhibition of LRRK2-pSer935 in LRRK2 G2019S mutant expressing human HEK293 cells and measured after 48 hrs by ICW assay; assay type: cell-based
[4] = target: T1, Leucine-rich repeat serine/threonine-protein kinase 2; experiment: Inhibition of LRRK2-pSer935 in LRRK2 WT expressing human HEK293 cells and measured after 48 hrs by ICW assay; assay type: cell-based
[5] = target: T2, Leucine-rich repeat serine/threonine-protein kinase 2; experiment: Binding affinity to human GST tagged truncated LRRK2 G2019S mutant incubated for 2 hrs by TR-FRET based Lanthascreen kinase activity assay
[6] = target: T1, Leucine-rich repeat serine/threonine-protein kinase 2; experiment: Binding affinity to human LRRK2 WT incubated for 2 hrs by TR-FRET based Lanthascreen kinase activity assay
[7] = Aqueous solubility of the compound; assay type: physicochemical; conditions: buffer
[8] = target: T3, NUAK family SNF1-like kinase 1 (Homo sapiens) (UniProt O60285); experiment: Inhibition of ARK5 (unknown origin) assessed as remaining activity using botin-anti-his and Lanthascreen Eu-streptavidin at 1 uM incubated for 2 hrs by TR-FRET based Lanthascreen kinase activity assay relative to control
T3 sequence (whole entry): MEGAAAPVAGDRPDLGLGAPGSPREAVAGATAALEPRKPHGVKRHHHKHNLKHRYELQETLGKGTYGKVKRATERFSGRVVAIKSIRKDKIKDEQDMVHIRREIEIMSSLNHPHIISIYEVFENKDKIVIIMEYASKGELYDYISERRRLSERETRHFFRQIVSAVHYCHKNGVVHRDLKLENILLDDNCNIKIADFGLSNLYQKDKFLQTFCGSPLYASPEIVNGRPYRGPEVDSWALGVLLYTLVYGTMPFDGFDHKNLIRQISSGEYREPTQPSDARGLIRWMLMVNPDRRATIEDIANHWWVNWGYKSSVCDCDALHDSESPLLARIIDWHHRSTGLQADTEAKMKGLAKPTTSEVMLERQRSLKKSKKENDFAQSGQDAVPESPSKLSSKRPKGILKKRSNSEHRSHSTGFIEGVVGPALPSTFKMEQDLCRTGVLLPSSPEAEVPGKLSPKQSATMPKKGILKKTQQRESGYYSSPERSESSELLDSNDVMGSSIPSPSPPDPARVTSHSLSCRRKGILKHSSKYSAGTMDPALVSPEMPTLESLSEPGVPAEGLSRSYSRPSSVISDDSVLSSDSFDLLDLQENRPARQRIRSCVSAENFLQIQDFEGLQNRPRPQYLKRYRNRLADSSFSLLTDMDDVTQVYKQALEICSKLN

[9] = target: Proto-oncogene tyrosine-protein kinase receptor Ret (Homo sapiens) (UniProt P07949); experiment: Inhibition of RET (unknown origin) assessed as remaining activity using botin-anti-his and Lanthascreen Eu-streptavidin measured at 1 uM incubated for 2 hrs by TR-FRET based Lanthascreen kinase activity assay relative to control
Proto-oncogene tyrosine-protein kinase receptor Ret (Homo sapiens), sequence (P07949 whole entry): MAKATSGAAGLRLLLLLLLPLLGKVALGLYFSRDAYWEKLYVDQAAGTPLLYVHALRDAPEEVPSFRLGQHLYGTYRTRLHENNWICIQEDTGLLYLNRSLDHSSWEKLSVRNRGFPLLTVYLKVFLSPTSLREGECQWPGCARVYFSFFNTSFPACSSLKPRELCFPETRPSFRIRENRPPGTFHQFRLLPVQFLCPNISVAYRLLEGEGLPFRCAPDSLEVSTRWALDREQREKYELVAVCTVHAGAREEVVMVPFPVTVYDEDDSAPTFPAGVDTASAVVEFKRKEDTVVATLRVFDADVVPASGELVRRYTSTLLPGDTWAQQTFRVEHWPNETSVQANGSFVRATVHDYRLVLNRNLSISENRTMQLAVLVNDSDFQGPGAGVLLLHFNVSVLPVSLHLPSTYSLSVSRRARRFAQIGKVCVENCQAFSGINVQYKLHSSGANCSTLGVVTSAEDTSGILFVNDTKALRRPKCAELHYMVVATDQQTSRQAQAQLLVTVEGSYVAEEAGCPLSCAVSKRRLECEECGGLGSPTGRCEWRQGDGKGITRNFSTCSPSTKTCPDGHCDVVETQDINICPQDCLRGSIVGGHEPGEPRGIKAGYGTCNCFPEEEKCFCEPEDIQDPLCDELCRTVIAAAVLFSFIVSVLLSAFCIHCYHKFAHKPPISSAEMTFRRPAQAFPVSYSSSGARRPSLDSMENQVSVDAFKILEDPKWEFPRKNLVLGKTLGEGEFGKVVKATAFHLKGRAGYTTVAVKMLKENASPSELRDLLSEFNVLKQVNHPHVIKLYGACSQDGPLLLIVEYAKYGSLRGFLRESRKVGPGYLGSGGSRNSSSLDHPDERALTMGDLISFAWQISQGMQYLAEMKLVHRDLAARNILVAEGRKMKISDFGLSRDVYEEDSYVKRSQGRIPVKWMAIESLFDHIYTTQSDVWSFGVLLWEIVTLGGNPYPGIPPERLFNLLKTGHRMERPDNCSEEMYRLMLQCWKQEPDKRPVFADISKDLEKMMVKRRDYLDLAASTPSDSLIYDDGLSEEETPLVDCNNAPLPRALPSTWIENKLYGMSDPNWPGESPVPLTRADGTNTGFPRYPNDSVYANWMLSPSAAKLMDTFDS

T2 sequence (Q5S007 whole entry G2019S, the tested form may be a part): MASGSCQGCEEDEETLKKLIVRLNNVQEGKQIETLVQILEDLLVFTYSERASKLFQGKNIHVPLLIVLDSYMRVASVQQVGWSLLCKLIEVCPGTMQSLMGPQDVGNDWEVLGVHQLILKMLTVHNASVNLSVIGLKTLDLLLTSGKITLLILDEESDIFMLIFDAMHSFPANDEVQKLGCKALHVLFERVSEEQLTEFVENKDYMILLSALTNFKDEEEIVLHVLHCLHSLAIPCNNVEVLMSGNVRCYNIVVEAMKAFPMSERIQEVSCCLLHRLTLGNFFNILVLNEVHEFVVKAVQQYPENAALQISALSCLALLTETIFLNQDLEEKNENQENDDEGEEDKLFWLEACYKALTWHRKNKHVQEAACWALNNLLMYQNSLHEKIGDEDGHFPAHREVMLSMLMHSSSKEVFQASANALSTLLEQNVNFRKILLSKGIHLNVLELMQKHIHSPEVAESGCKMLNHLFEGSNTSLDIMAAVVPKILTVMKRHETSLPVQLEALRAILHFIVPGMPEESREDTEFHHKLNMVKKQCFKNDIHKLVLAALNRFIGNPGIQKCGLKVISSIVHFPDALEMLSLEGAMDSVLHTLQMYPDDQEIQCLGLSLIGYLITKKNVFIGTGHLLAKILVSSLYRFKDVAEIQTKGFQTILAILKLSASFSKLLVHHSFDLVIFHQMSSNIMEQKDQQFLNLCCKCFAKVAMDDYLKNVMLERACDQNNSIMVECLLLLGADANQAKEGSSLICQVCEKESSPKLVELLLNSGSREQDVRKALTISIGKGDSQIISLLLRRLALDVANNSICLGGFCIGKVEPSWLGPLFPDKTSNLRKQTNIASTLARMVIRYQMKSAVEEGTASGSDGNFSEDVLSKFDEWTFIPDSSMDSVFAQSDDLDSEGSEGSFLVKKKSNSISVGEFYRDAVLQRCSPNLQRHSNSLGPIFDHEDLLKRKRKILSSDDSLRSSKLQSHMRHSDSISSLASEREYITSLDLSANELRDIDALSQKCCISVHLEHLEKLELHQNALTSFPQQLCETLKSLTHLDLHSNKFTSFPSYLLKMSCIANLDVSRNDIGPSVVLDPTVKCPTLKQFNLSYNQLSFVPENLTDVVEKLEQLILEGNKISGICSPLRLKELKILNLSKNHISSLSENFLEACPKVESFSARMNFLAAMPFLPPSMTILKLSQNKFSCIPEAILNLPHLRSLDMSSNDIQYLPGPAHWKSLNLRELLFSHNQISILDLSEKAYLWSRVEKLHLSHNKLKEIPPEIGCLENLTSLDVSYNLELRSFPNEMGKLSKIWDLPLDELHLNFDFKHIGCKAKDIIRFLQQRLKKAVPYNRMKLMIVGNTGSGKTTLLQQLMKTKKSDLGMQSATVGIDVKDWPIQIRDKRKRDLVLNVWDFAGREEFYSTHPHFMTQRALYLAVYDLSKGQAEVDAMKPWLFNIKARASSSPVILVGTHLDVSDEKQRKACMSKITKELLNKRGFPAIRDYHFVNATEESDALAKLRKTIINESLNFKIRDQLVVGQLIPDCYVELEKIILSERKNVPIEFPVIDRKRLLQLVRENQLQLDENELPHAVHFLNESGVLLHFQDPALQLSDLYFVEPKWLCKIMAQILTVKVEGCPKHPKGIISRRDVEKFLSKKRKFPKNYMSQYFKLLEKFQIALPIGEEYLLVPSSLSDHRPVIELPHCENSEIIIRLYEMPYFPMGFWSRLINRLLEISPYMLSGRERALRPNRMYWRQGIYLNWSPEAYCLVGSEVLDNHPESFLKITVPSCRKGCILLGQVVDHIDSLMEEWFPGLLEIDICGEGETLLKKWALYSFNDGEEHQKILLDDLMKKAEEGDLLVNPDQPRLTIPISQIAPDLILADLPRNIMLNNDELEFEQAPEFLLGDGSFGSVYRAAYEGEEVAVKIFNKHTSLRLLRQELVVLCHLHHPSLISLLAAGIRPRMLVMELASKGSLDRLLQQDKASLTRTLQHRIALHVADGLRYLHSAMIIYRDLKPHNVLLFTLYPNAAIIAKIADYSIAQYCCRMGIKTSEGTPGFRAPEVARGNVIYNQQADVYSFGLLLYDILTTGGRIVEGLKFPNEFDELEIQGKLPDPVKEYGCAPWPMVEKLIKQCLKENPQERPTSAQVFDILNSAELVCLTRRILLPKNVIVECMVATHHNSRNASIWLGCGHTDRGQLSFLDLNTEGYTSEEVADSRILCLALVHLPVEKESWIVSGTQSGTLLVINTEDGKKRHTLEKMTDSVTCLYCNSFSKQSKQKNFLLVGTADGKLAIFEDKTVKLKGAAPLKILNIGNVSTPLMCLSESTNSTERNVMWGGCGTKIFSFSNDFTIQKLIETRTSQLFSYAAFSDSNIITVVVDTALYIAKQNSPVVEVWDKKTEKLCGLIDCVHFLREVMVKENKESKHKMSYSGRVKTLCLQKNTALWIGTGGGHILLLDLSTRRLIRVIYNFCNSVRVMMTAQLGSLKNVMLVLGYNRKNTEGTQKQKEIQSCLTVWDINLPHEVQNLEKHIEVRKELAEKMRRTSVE
T1 sequence (Q5S007 whole entry, the tested form may be a part): as the sequence (Q5S007 whole entry G2019S, the tested form may be a part) above, with S2019G counted along it

SMILES	IC50 [1] [nM]	IC50 [2] [nM]	IC50 [3] [nM]	IC50 [4] [nM]	Ki [5] [nM]	Ki [6] [nM]	solubility [7]	Activity [8] [%]	Activity [9] [%]
Cc1nn(CC(C)(C)O)cc1Nc1nc(N)c2c(C#N)c(N3CCC[C@H]3C)n(C)c2n1	49	42	180	280					
Cn1c(N)c(C#N)c2c(N)ncnc21	14400	8560			589	346			
Cn1c(N2CCCC2)c(C#N)c2c(N)ncnc21	1480	1910			125	41			
Cn1c(-n2cccc2)c(C#N)c2c(N)ncnc21					1980	239	Insoluble		
Cn1c(-c2ccccc2)c(C#N)c2c(N)ncnc21	1260	483			33	30			
Cc1c(Nc2nc(N)c3c(C#N)c(N4CCC[C@H]4C)n(C)c3n2)cnn1C1COC1	47	37	190	300					
C[C@@H]1CCCN1c1c(C#N)c2c(N)nc(N)nc2n1C	248	217			13	6			
C[C@@H]1CCCN1c1[nH]c2ncnc(N)c2c1C#N	166	201			14	4			
Nc1ncnc2nc[nH]c12 [ADENINE]		15800			6720				
C[C@@H]1CCCN1c1c(C#N)c2c(N)nc(Nc3cnn(C)c3)cc2n1C					794	538			
Cc1c(Nc2nc(N)c3c(C#N)c(N4CCC[C@H]4C)n(C)c3n2)cnn1CC(C)(C)O	43	35	120	280					
Cc1c(Nc2nc(N)c3c(C#N)c(N4CCC[C@H]4C)n(C)c3n2)cnn1CC1(O)COC1	16	10	120	220					
C[C@@H]1CCCN1c1c(C#N)c2c(N)nc(Nc3cnn(C)c3)nc2n1C	6	5			0.3	0.1		91	103
C[C@@H]1CCCN1c1c(C#N)c2c(N)nc(Nc3ccn(C)n3)cc2n1C	234	206			13	6		3	27
Nc1ncnc2[nH]ncc12		26600			11300				
Cc1nn(CC2(O)COC2)cc1Nc1nc(N)c2c(C#N)c(N3CCC[C@H]3C)n(C)c2n1	57	51	250	410					
Cc1nn(C2COC2)cc1Nc1nc(N)c2c(C#N)c(N3CCC[C@H]3C)n(C)c2n1	38	25	140	240					
Cc1nn(C2CCOC2)cc1Nc1nc(N)c2c(C#N)c(N3CCC[C@H]3C)n(C)c2n1 (mixture of isomers)	19	12	65	140					

SMILES	IC50 [1] [nM]	IC50 [2] [nM]	IC50 [3] [nM]	IC50 [4] [nM]	Ki [5] [nM]	Ki [6] [nM]	solubility [7]	Activity [8] [%]	Activity [9] [%]
Cn1c(-c2cccc(F)c2F)c(C#N)c2c(N)ncnc21	572	159			11	14			
CN(C)c1ncnc2nc[nH]c12 [DIMETHYLADENINE]		3350			1420				
Cc1nn(C2CCOC2)cc1Nc1nc(N)c2c(C#N)c(N3CCC[C@H]3C)n(C)c2n1 (single isomer, unassigned)	44	28	180	260					
C[C@@H]1CCCN1c1c(C#N)c2c(N)nccc2n1C	34	28			2	0.8		65	37
CN(C)c1c(C#N)c2c(N)ncnc2n1C	4620	3760			259	111			
C[C@@H]1CCCN1c1c(C#N)c2c(N)nc(Nc3cn(C)nc3C(F)(F)F)nc2n1C	508	358	460	910					
C[C@@H]1CCCN1c1cc2c(N)ncnc2n1C	6830	6390			439	164			
C[C@@H]1CCCN1c1c(C#N)c2c(N)nc(Nc3cn[nH]c3)nc2n1C	6	6			0.4	0.2		97	101
Cc1n[nH]cc1Nc1nc(N)c2c(C#N)c(N3CCC[C@H]3C)n(C)c2n1	42	27			2	1		-5	8
Cc1c(Nc2nc(N)c3c(C#N)c(N4CCC[C@H]4C)n(C)c3n2)cnn1C	75	43	260	310	3	2			
C[C@@H]1CCCN1c1c(C(N)=O)c2c(N)ncnc2n1C	3190	2240			154	77			
C[C@H]1CCCN1c1c(C#N)c2c(N)ncnc2n1C	5660	3080			212	136			
Cc1cn(C)nc1Nc1cc2c(c(N)n1)c(C#N)c(N1CCC[C@H]1C)n2C	2110	1290			75	63		-7	8
C[C@@H]1CCCN1c1c(C#N)c2c(N)ncnc2n1C	15	11			0.7	0.4		93	64
Cn1c(NCc2ccccc2F)c(C#N)c2c(N)ncnc21	6060	1740			120	145			
C[C@@H]1CCCN1c1c(C#N)c2c(N)nc(Nc3cn(C)nc3Cl)nc2n1C	34	21	54	190					
Cn1c(NCc2ccccc2)c(C#N)c2c(N)ncnc21		3530			243	423			
Cc1nn(C)cc1Nc1nc(N)c2c(C#N)c(N3CCC[C@H]3C)n(C)c2n1	38	30	120	190	2	1			

From ChEMBL document CHEMBL5038598, “Design and Synthesis of Pyrrolo[2,3-d]pyrimidine-Derived Leucine-Rich Repeat Kinase 2 (LRRK2) Inhibitors Using a Checkpoint Kinase 1 (CHK1)-Derived Crystallographic Surrogate” (J Med Chem, 2021)
